Results on 39 compounds are retold here after patent US20230293518A1 (Edgewise Therapeutics, Inc., priority 2020, published 2023).

pIC50: −log10 of the molar value. Bounds are passed on as bounds.

By pIC50 is commonly meant the negative decadic logarithm of the IC50, by convention in mol/L. High values mean a small IC50, low ones a large IC50.

The first experiment deals with skeletal myofibrils (myosin ATPase). Nature of the experiment: Skeletal Myofibril ATPase Assay. The experiment is classed as biochemical. As to conditions: Table 4A. Put shortly: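 Skeletal myofibril ATPase activity was measured via PK-LDH coupling, following NADH loss at 340 nm every 1.5-2 min for 45 min in PIPES/CaCl2/EGTA pCa buffer, pH 7.0. Max−Min slopes were normalised to 1% DMSO vehicle (100%) and fit to a four-parameter logistic (bottom ≥0) for IC50.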
In turn, `CCNC(=O)Cn1nc(-c2ccc(N3CCC34COC4)nc2)ccc1=O` [Compound I-19, 2-(3-(6-(6-oxa-1-azaspiro[3.3]heptan-1-yl)pyridin-3-yl)-6-oxopyridazin-1(6H)-yl)-N-ethylacetamide] showed a pIC50 of 4.00 to 5.00.
On the same count and under the same terms, then `CCNC(=O)Cn1nc(-c2ccc(N3CC4CC(C3)O4)nc2)ccc1=O` [Compound I-43, 2-(3-(6-(6-oxa-3-azabicyclo[3.1.1]heptan-3-yl)pyridin-3-yl)-6-oxopyridazin-1(6H)-yl)-N-ethylacetamide], with 4.00 to 5.00.
`CCNC(=O)Cn1nc(-c2cnc(Nc3ccc(Cl)cc3)nc2)ccc1=O` [Compound I-1, 2-(3-(2-((4-chlorophenyl)amino)pyrimidin-5-yl)-6-oxopyridazin-1(6H)-yl)-N-ethylacetamide]: the pIC50 was above 5.00.
Still for that read-out and setting: to `COc1ccc(-c2ccc(=O)n(CC(=O)NC(C)C)n2)cn1` [Compound I-16, N-isopropyl-2-(3-(6-methoxypyridin-3-yl)-6-oxopyridazin-1(6H)-yl)acetamide] belongs 4.00 to 5.00.
Same read-out and setting: to `O=C(Cn1nc(-c2ccc(OC(F)F)nc2)ccc1=O)NC1(c2ccccc2)CCC1` [Compound I-68, 2-(3-(6-(difluoromethoxy)pyridin-3-yl)-6-oxopyridazin-1(6H)-yl)-N-(1-phenylcyclobutyl) acetamide] belongs above 5.00; to `CC(C)(C#N)NC(=O)Cn1nc(-c2ccc(OC(F)F)nc2)ccc1=O` [Compound I-35, N-(2-cyanopropan-2-yl)-2-(3-(6-(difluoromethoxy)pyridin-3-yl)-6-oxopyridazin-1(6H)-yl)acetamide], 4.00 to 5.00; to `CCNC(=O)Cn1nc(-c2ccc(NC34CC(C)(C3)C4)nc2)ccc1=O` [Compound I-60, N-ethyl-2-(3-(6-((3-methylbicyclo [1.1.1]pentan-1-yl)amino)pyridin-3-yl)-6-oxopyridazin-1(6H)-yl)acetamide], above 5.00.
The same measure, in the same setting: to `COc1ccc(-c2ccc(=O)n(CC(=O)NCc3ccccc3Cl)n2)cn1` [Compound I-5, N-(2-chlorobenzyl)-2-(3-(6-methoxypyridin-3-yl)-6-oxopyridazin-1(6H)-yl)acetamide] belongs above 5.00; to `O=C(Cn1nc(-c2cnc(OCC(F)(F)F)nc2)ccc1=O)NC12CC(C1)C2` [Compound I-51, N-(bicyclo[1.1.1]pentan-1-yl)-2-(6-oxo-3-(2-(2,2,2-trifluoroethoxy)pyrimidin-5-yl)pyridazin-1(6H)-yl)acetamide], above 5.00.

The experiment is the same for the next values; noted with them: Table 4B.
For `CCNC(=O)Cn1nc(-c2ccc(OC(F)(F)F)cc2)ccc1=O` [II-5, N-ethyl-2-(6-oxo-3-(4-(trifluoromethoxy)phenyl)pyridazin-1(6H)-yl)acetamide], the pIC50 was above 5.00.
Still for that read-out and setting: to `CCNC(=O)Cn1nc(-c2ccc(OC(C)(F)F)cc2)ccc1=O` [II-1, 2-(3-(4-(1,1-difluoroethoxy)phenyl)-6-oxopyridazin-1(6H)-yl)-N-ethylacetamide] belongs above 5.00; to `O=C(Cn1nc(-c2ccc(OCC(F)(F)F)cc2)ccc1=O)NCc1ccc[nH]c1=O` [II-26, N-((2-oxo-1,2-dihydropyridin-3-yl)methyl)-2-(6-oxo-3-(4-(2,2,2-trifluoroethoxy)phenyl)pyridazin-1(6H)-yl)acetamide], 4.00 to 5.00.

The experiment is the same for the next values; noted with them: Table 4C.
With `COc1ccc(-c2ccc(=O)n(CC(=O)NCC3CCOCC3)n2)cc1` [IIIa-29, 2-(3-(4-methoxyphenyl)-6-oxopyridazin-1(6H)-yl)-N-((tetrahydro-2H-pyran-4-yl)methyl) acetamide], the pIC50 is below 4.00.
Compound `COc1ccc(-c2ccc(=O)n(CC(=O)NCc3cccc(C)c3)n2)cc1` [IIIa-10, 2-(3-(4-methoxyphenyl)-6-oxopyridazin-1(6H)-yl)-N-(3-methylbenzyl) acetamide] gave a pIC50 above 5.00.
Still for that read-out and setting: then `COc1ccc(-c2ccc(=O)n(CC(=O)Nc3ncccc3C)n2)cc1` [IIIb-27, 2-(3-(4-methoxyphenyl)-6-oxopyridazin-1(6H)-yl)-N-(3-methylpyridin-2-yl)acetamide], with 4.00 to 5.00; and `COCCNC(=O)Cn1nc(-c2ccc(OC)cc2)ccc1=O` [IIIb-47, N-(2-methoxyethyl)-2-(3-(4-methoxyphenyl)-6-oxopyridazin-1(6H)-yl)acetamide], with below 4.00; and `COc1ccc(-c2ccc(=O)n(CC(=O)NCc3ccccc3Cl)n2)cc1C` [IIIa-23, N-(2-chlorobenzyl)-2-(3-(4-methoxy-3-methylphenyl)-6-oxopyridazin-1(6H)-yl)acetamide], with 4.00 to 5.00.
Still for that read-out and setting: then `COc1ccc(Cl)cc1NC(=O)Cn1nc(-c2ccccc2)ccc1=O` [IIIc-62, N-(5-chloro-2-methoxyphenyl)-2-(6-oxo-3-phenylpyridazin-1(6H)-yl)acetamide], with below 4.00.
On to `COc1ccc(-c2ccc(=O)n(CC(=O)NC(C)CCc3ccccc3)n2)cc1` (stereo not drawn) [IIIb-30, 2-(3-(4-methoxyphenyl)-6-oxopyridazin-1(6H)-yl)-N-(4-phenylbutan-2-yl)acetamide], for which the pIC50 is 4.00 to 5.00.
`CCc1ccc(-c2ccc(=O)n(CC(=O)NCc3ccccc3Cl)n2)cc1` [IIIa-18, N-(2-chlorobenzyl)-2-(3-(4-ethylphenyl)-6-oxopyridazin-1(6H)-yl)acetamide] showed a pIC50 above 5.00.
`COc1ccc(-c2ccc(=O)n(CC(=O)NC(C)c3ccccc3Cl)n2)cc1` (stereo not drawn) [IIIa-25, N-(1-(2-chlorophenyl)ethyl)-2-(3-(4-methoxyphenyl)-6-oxopyridazin-1(6H)-yl)acetamide] had a pIC50 of 4.00 to 5.00.
Still for that read-out and setting: then `CCNC(=O)Cn1nc(-c2ccc(OC)cc2)ccc1=O` [IIIa-3, N-ethyl-2-(3-(4-methoxyphenyl)-6-oxopyridazin-1(6H)-yl)acetamide], with above 5.00.
Still for that read-out and setting: to `Cn1ccc2c(NC(=O)Cn3nc(-c4ccc(Cl)cc4)ccc3=O)cccc21` [IIIc-20, 2-(3-(4-chlorophenyl)-6-oxopyridazin-1(6H)-yl)-N-(1-methyl-1H-indol-4-yl)acetamide] belongs above 5.00; to `Cc1ccc(-c2ccc(=O)n(CC(=O)NCCc3ccccc3)n2)cc1` [IIIc-3, 2-(6-oxo-3-(p-tolyl)pyridazin-1(6H)-yl)-N-phenethylacetamide], above 5.00; to `COc1ccc(-c2ccc(=O)n(CC(=O)NCc3ccccc3C(F)(F)F)n2)cc1` [IIIa-11, 2-(3-(4-methoxyphenyl)-6-oxopyridazin-1(6H)-yl)-N-(2-(trifluoromethyl)benzyl)acetamide], above 5.00.
Same read-out and setting: to `COc1ccc(-c2ccc(=O)n(CC(=O)NCc3ccon3)n2)cc1` [IIIa-26, N-(isoxazol-3-ylmethyl)-2-(3-(4-methoxyphenyl)-6-oxopyridazin-1(6H)-yl)acetamide] belongs 4.00 to 5.00; to `COc1ccc(-c2ccc(=O)n(CC(=O)Nc3cc(Cl)ccc3Cl)n2)c(F)c1` [IIIb-13, N-(2,5-dichlorophenyl)-2-(3-(2-fluoro-4-methoxyphenyl)-6-oxopyridazin-1(6H)-yl)acetamide], above 5.00.
On to `COc1ccc(-c2ccc(=O)n(CC(=O)NCCc3ccc(OC)c(OC)c3)n2)cc1` [IIIb-51, N-(3,4-dimethoxyphenethyl)-2-(3-(4-methoxyphenyl)-6-oxopyridazin-1(6H)-yl)acetamide], for which the negative-log IC50 (pIC50) was below 4.00.
Still for that read-out and setting: then `CCOc1ccc(-c2ccc(=O)n(CCNC(=O)CC3CCCC3)n2)cc1` [IIIb-43, 2-cyclopentyl-N-(2-(3-(4-ethoxyphenyl)-6-oxopyridazin-1(6H)-yl)ethyl)acetamide], with below 4.00.
The same measure, in the same setting: then `CC(C)CNC(=O)Cn1nc(-c2ccc(Cl)cc2)ccc1=O` [IIIc-35, 2-(3-(4-chlorophenyl)-6-oxopyridazin-1(6H)-yl)-N-isobutylacetamide], with 4.00 to 5.00.
On the same count and under the same terms, then `COc1ccc(-c2ccc(=O)n(CC(=O)NC3CCCC3)n2)cc1` [IIIb-23, N-cyclopentyl-2-(3-(4-methoxyphenyl)-6-oxopyridazin-1(6H)-yl)acetamide], with 4.00 to 5.00.
`COc1ccc(-c2ccc(=O)n(CC(=O)Nc3cccc(Cl)c3)n2)cc1` [IIIb-52, N-(3-chlorophenyl)-2-(3-(4-methoxyphenyl)-6-oxopyridazin-1(6H)-yl)acetamide] had a pIC50 below 4.00.
The same measure, in the same setting: to `CNC(=O)Cn1nc(-c2ccc(OC)cc2)ccc1=O` [IIIa-21, 2-(3-(4-methoxyphenyl)-6-oxopyridazin-1(6H)-yl)-N-methylacetamide] belongs 4.00 to 5.00; to `Cn1ccc2c(NC(=O)Cn3nc(-c4ccc(F)cc4)ccc3=O)cccc21` [IIIc-16, 2-(3-(4-fluorophenyl)-6-oxopyridazin-1(6H)-yl)-N-(1-methyl-1H-indol-4-yl)acetamide], above 5.00.
In turn, `O=C(Cn1nc(-c2ccc(Cl)cc2)ccc1=O)Nc1ccccc1F` [IIIc-27, 2-(3-(4-chlorophenyl)-6-oxopyridazin-1(6H)-yl)-N-(2-fluorophenyl)acetamide] showed a pIC50 of 4.00 to 5.00.
In the case of `COc1ccc(-c2ccc(=O)n(CC(=O)NCc3ccc(F)cc3)n2)cc1` [IIIb-50, N-(4-fluorobenzyl)-2-(3-(4-methoxyphenyl)-6-oxopyridazin-1(6H)-yl)acetamide], the pIC50 is below 4.00.
The same measure, in the same setting: then `COc1ccc(-c2ccc(=O)n(CC(=O)NC(C)(C)c3ccccc3)n2)cc1` [IIIa-9, 2-(3-(4-methoxyphenyl)-6-oxopyridazin-1(6H)-yl)-N-(2-phenylpropan-2-yl)acetamide], with above 5.00; and `COc1ccc(-c2ccc(=O)n(CC(=O)NCc3ccno3)n2)cc1` [IIIa-34, N-(isoxazol-5-ylmethyl)-2-(3-(4-methoxyphenyl)-6-oxopyridazin-1(6H)-yl)acetamide], with below 4.00.

The subject of the next experiment is embryos from zebrafish model of DMD.
Assay: not given
The note with it: Li and Arner, PLoSONE, 2015; cited from earlier work.
`Cc1ccc(S(=O)(=O)NCc2ccccc2)cc1` [BTS, N-benzyl-p-tolyl-sulfonamide]: the “protection of muscles from pathological muscle derangement” value is recorded as “protect muscles from pathological muscle derangement”.
